# Legend:
# Assay type in all cases: binding
# [1] = Competition with EDTA in complexing Co2+, proton NMR; conditions: 1 mmol/l derivative, 4 mmol/l cation and EDTA (large excess of EDTA), aqueous solution
# Method: (§1) In this example, experiments were carried out to compare the derivative from Example 1 and ethylene diamine tetra acetate (EDTA) in complexing Dy^3+, Eu^3+ and Co^2+ ions, in order to get an idea of the force of the complexes prepared in Example 2.
# (§2) With this in mind, 4 mmol/l of the tested cation and EDTA were added to 50 μl of an aqueous solution containing 1 mmol/l of the derivative from Example 1. The resulting products were than characterised by proton NMR spectrometry.
# [2] = Complexation of La3+ followed by proton NMR; conditions: 1 mmol/l derivative, 4 mmol/l cation, aqueous solution
# Method: (§3) Each complex is prepared by adding 4 mmol/l of the tested cation to 500 μl of an aqueous solution containing 1 mmol/l of the product from Example 1. The following cations were tested: Lu^3+, La^3+, Dy^3+, Eu^3+ and Co^2+.
# (§4) The resulting complexes were then characterised by proton nuclear magnetic resonance spectrometry.
# [3] = Complexation of physiological cation Ca2+, proton NMR; conditions: same procedure as Example 2: 1 mmol/l derivative, 4 mmol/l cation
# Method: as §3
# (§5) In this example, the complexation properties of the derivative from Example 1 were tested vis à vis physiological cations: calcium, sodium and potassium, all of which are required in the development of living organisms.
# (§6) The same procedure was used as given in Example 2, and the resulting products were characterised by proton NMR spectrometry.
# [4] = Complexation of physiological cation K+, proton NMR; conditions: same procedure as Example 2: 1 mmol/l derivative, 4 mmol/l cation
# Method: as §3, §5, §6
# [5] = Complexation of Co2+ followed by proton NMR; conditions: 1 mmol/l derivative, 4 mmol/l cation, aqueous solution
# Method: as §3, §4
# [6] = Complexation of Lu3+ followed by proton NMR; conditions: 1 mmol/l derivative, 4 mmol/l cation, aqueous solution
# Method: as §3, §4
# [7] = Complexation of physiological cation Na+, proton NMR; conditions: same procedure as Example 2: 1 mmol/l derivative, 4 mmol/l cation
# Method: as §3, §5, §6
# [8] = Complexation of Dy3+ followed by proton NMR; conditions: 1 mmol/l derivative, 4 mmol/l cation, aqueous solution
# Method: as §3, §4
# [9] = Competition with EDTA in complexing Eu3+, proton NMR; conditions: 1 mmol/l derivative, 4 mmol/l cation and EDTA (large excess of EDTA), aqueous solution
# Method: as §1, §2
# [10] = Competition with EDTA in complexing Dy3+, proton NMR; conditions: 1 mmol/l derivative, 4 mmol/l cation and EDTA (large excess of EDTA), aqueous solution
# Method: as §1, §2
# [11] = Complexation of Eu3+ followed by proton NMR; conditions: 1 mmol/l derivative, 4 mmol/l cation, aqueous solution
# Method: as §3, §4
substance,measurement,setting,value
"Hexakis-(3,6-anhydro-2-O-carboxymethyl)-cyclomaltohexaose [Example 1]",strength of Co^2+ complex compared to EDTA,[1],complexes the cations more strongly than EDTA
same,interaction with La^3+ (change of proton NMR spectrum),[2],H6 and H6′ protons located on the anhydro bridge can still be observed
same,effect of Ca^2+ on proton NMR peaks of the derivative (complexation),[3],hardly affected
same,effect of K^+ on proton NMR peaks of the derivative (complexation),[4],hardly affected
same,interaction with Co^2+ (change of proton NMR spectrum),[5],very strong interaction
same,interaction with Lu^3+ (change of proton NMR spectrum),[6],several stoichiometrically different complexes co-exist in solution
same,effect of Na^+ on proton NMR peaks of the derivative (complexation),[7],hardly affected
same,interaction with Dy^3+ (change of proton NMR spectrum),[8],very strong interaction
same,strength of Eu^3+ complex compared to EDTA,[9],complexes the cations more strongly than EDTA
same,strength of Dy^3+ complex compared to EDTA,[10],complexes the cations more strongly than EDTA
same,interaction with Eu^3+ (change of proton NMR spectrum),[11],very strong interaction
